These results are taken from publication PMC8929087, “Structural and Functional Characterization of a Novel Recombinant Antimicrobial Peptide from Hermetia illucens” (Current Issues in Molecular Biology, 2021).

In one assay the test system is E. coli BL21. It counts as cell-based, Escherichia coli. To be noted: BL21, 24 h. As for the experimental part:
(§1) The […] antimicrobial activity of the recombinant C-15867 peptide was evaluated against three different bacterial strains: E. coli BL21, Staphylococcus aureus NCTC 12493 and Staphylococcus. epidermidis ATCC 12228. The minimum inhibitory concentration (MIC) was determined as the lowest concentration showing no visible growth after 24 h of incubation at 37 °C.
(§2) Figure 5 Determination of C-15867 minimum inhibitory concentration (MIC). All bacteria cells were grown in the presence of serial dilution of peptide from 248 µM to 0.56 µM and incubated at 37 °C for 24 h. The error bars on the graphs stand for the standard deviation from the mean of three experiments.
(§3) The procedure was performed using medium as negative control and cells approximately 5 × 10^5 CFU/mL as positive control to monitor the normal growth of bacteria.

Another assay relates to E. coli Bl21 cells. Description: Scanning electron microscopy (SEM) of cell morphology. The assay is classed as cell-based, Escherichia coli. To be noted: sub-mic concentration (9 µM) of peptide, 3 h incubation at 37 °C, compared with untreated cells. On the procedure: The effect of C-15867 on the morphology of E. coli BL21 cells was also assessed by SEM microscopy analyses. Bacterial cells were treated with a sub-mic concentration (9 µM) of the antimicrobial peptide and SEM analyses were carried out after 3 h of incubation in comparison with untreated cells.
The cell wall and the cell surface were rough gradually forming pores with subsequent leakage of cytoplasmic material confirming the disrupting effect of the antimicrobial peptide on the bacterial membrane.
Figure 7 Scanning electron microscopy of E. coli BL2_1 cells following 3 h treatment with a sub-mic concentration (9 µM) of the antimicrobial peptide C-15867 (d–f) in comparison with untreated cells (a–c). The scale bar was 2 µm in panel (a), 500nm in panel (b,c) and 1µm in panel (d–f).
E. coli BL21 cells were grown in the absence and in the presence of native C15867 peptide at 37 °C for 3 h. Samples from each culture were fixed in 2.5% glutaraldehyde solution for 16 h. Following the incubation, the bacterial cells were washed with 0.1 M PBS (pH 7.2) and dehydrated in a series of ethanol solutions ranging from 30 to 100%, followed by three washes with 100% ethanol. E. coli cells were deposited onto glass substrate first sputter coated with a thin layer of Au-Pd alloy (Denton Vacuum Desk V Magnetron Sputtering) to allow subsequent morphological characterization using a FEI Nova NanoSEM 450.

Assay [1] has as its system Staphylococcus aureus NCTC 12493. It counts as cell-based. To be noted: NCTC 12493, 24 h. On the procedure: as §1, §2, §3
In assay [2] the test system is E. coli BL21 membrane permeability. Nature of the assay: Crystal violet assay of membrane permeability. To be noted: sub-mic concentration (9 µM) of peptide, LB broth, 37 °C, OD590 of supernatant. The assay is classed as cell-based, Escherichia coli. On the procedure:
With C-15867 being a defensin-like AMP, we investigated the effect of the peptide, if any, on E. coli BL21 membrane permeability using the crystal violet assay. Bacterial cells were grown in the presence of a sub-mic concentration (9 µM) of the peptide and the uptake of crystal violet was monitored at different times of incubation.
Figure 6 Effect of C-15867 on E. coli BL21 membrane permeability. The uptake of crystal violet was calculated in the presence of sub-mic concentration (9 µM) of the peptide.
The alteration in membrane permeability was detected by crystal violet assay. Bacterial cells were grown in LB broth at 37 °C in the presence of […] peptide for 1 and 3 h. Subsequently, the cells were harvested at 9300× g for 5 min and then the cells were resuspended in 1× PBS containing 10 µg/mL of crystal violet. The cell suspension was incubated for 10 min at 37 °C and then centrifuged at 13,400× g for 15 min and the OD590 of the supernatant was measured at the spectrophotometer. Control samples were prepared similarly without treatment. The OD value of the crystal violet solution, which was originally used in the assay, was taken and it was considered as 100%. The percentage of crystal violet uptake of all the samples was quantified according to the following formula: OD value of the sample/OD value of the crystal violet solution 100×.

Assay [3] has as its system Staphylococcus epidermidis ATCC 12228. Description: Minimum inhibitory concentration (MIC) determination. To be noted: serial dilution of peptide 248 to 0.5 μM, 24 h at 37 °C. The assay is classed as cell-based. On the procedure: as §1, §2, §3

Values after ≈ are worked out from the molar mass of the structure shown. Where a SMILES comes first, the peptide text is derived from it. Bridges are numbered along the chain shown (N, C = ends).

With `CC[C@H](C)[C@@H]1NC(=O)[C@@H]2CSSC[C@@H](C(=O)N[C@@H](CCCNC(=N)N)C(=O)O)NC(=O)[C@H](C(C)C)NC(=O)[C@@H]3CSSC[C@H](NC(=O)[C@@H]4CCCN4C(=O)[C@H](C)NC(=O)[C@H](CCCNC(=N)N)NC(=O)CNC(=O)[C@H](Cc4ccccc4)NC(=O)[C@H](Cc4ccccc4)NC(=O)[C@@H]4CCCN4C(=O)[C@H](CCCCN)NC(=O)[C@H](CC(C)C)NC(=O)[C@H](CC(C)C)NC(=O)[C@H](CC(=O)O)NC(=O)[C@@H](NC(=O)[C@@H](NC(=O)[C@@H](N)C(C)C)[C@@H](C)O)CSSC[C@H](NC(=O)[C@H](Cc4ccccc4)NC(=O)CNC(=O)[C@H]([C@@H](C)O)NC(=O)[C@H](CCCNC(=N)N)NC(=O)[C@H](CCCCN)NC(=O)[C@H](CCCCN)NC(=O)[C@H](Cc4ccccc4)NC(=O)[C@H](CCCNC(=N)N)NC(=O)[C@H](CC(C)C)NC1=O)C(=O)N[C@@H](CO)C(=O)N[C@@H](CCCNC(=N)N)C(=O)N[C@@H](CCC(N)=O)C(=O)N[C@@H](CC(N)=O)C(=O)N[C@@H](C(C)C)C(=O)N3)C(=O)N[C@@H](CCSC)C(=O)N[C@@H](CCSC)C(=O)N[C@@H](Cc1c[nH]cn1)C(=O)N2` [C-15867] (H-VTCDLLKPFFGRAPCMMHCILRFKKRTGFCSRQNVCVCR-OH; disulfide 3-30, 15-36, 19-38; N-terminus and C-terminus assumed), the “minimum inhibitory concentration (MIC)” value (in the assay on E. coli BL21; in assay [1]) was 36 µM (≈ 164 µg/mL) throughout. In addition, in the assay on E. coli Bl21 cells, the “cell morphology by SEM (in words)” value is “severe morphological changes”. Moreover, the “increase in the uptake of crystal violet” value in assay [2] (1 h of treatment) is listed as 22%; in assay [2] (3 h of treatment), 34%. Also, the “antimicrobial effect (in words)” value in assay [3] was “strong antimicrobial effect”.
